This note sets out measurements from ChEMBL document CHEMBL4765228, “Indole-like Trk receptor antagonists” (Eur J Med Chem, 2016).

Assay [1] deals with T1, Serine/threonine-protein kinase TBK1 (Homo sapiens) (UniProt Q9UHD2).
T1 sequence (whole entry): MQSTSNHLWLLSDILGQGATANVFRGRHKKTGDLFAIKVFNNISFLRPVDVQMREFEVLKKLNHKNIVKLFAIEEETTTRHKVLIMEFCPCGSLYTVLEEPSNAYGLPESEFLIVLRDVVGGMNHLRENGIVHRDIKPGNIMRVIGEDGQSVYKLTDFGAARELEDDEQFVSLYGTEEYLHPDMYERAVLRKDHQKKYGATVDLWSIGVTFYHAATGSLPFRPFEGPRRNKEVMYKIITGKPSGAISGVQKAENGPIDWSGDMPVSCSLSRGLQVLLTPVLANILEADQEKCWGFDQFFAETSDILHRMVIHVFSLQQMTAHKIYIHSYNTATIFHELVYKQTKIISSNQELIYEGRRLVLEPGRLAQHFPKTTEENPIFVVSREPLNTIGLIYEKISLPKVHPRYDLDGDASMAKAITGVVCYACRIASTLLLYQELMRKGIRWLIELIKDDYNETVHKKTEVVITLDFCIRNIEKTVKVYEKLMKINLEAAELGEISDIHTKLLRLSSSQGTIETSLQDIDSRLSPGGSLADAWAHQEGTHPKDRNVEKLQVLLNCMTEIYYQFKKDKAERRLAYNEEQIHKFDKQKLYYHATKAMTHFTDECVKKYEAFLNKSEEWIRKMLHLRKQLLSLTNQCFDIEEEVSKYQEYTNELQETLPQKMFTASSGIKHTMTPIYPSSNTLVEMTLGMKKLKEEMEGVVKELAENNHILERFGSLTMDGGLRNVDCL
As to the kind of experiment: Inhibition of human TBK1 assessed as residual activity at 1 uM relative to control.

Assay [2] addresses Serine/threonine-protein kinase Nek6 (Homo sapiens) (UniProt Q9HC98). In words: Inhibition of human NEK6 assessed as residual activity at 0.1 uM relative to control.
Assay [3] concerns the target T2, Serine/threonine-protein kinase D1 (Homo sapiens) (UniProt Q15139).
T2 sequence (whole entry): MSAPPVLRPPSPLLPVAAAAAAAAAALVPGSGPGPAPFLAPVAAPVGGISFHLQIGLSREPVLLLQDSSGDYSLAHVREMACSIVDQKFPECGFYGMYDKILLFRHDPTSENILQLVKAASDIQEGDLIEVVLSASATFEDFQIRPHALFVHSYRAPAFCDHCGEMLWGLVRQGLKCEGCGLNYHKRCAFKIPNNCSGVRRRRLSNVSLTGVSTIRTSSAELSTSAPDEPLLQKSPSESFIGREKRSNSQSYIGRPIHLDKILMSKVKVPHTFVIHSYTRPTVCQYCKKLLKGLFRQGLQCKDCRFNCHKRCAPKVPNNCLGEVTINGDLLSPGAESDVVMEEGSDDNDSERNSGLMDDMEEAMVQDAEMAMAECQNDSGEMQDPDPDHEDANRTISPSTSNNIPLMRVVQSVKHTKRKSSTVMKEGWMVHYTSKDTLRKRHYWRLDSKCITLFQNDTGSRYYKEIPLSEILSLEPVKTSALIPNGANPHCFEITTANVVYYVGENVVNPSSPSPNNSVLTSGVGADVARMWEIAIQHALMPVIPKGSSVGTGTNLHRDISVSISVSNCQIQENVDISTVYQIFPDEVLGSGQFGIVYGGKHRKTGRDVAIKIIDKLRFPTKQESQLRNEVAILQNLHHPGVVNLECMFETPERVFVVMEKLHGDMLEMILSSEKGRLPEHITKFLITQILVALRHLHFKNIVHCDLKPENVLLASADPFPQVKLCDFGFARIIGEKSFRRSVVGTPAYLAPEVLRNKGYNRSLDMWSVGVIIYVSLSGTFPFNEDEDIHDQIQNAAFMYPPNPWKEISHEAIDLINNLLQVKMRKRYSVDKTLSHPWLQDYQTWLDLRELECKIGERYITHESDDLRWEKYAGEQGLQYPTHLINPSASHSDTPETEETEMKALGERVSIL
As to the kind of experiment: Inhibition of human PKCmu assessed as residual activity at 1 uM relative to control.

Assay [4] deals with Receptor tyrosine-protein kinase erbB-4 (Homo sapiens) (UniProt Q15303). As to the kind of experiment: Inhibition of human ERBB4 assessed as residual activity at 0.1 uM relative to control.
In assay [5] the target is Dual specificity mitogen-activated protein kinase kinase 1 (Homo sapiens) (UniProt Q02750). In words: Inhibition of human wild type MEK1 assessed as residual activity at 0.1 uM relative to control.
For assay [6], the target named is Insulin-like growth factor 1 receptor (Homo sapiens) (UniProt P08069). As to the kind of experiment: Inhibition of human IGF1R assessed as residual activity at 0.1 uM relative to control.
Assay [7] is filed under the species Homo sapiens. As to the kind of experiment: Inhibition of human S6K assessed as residual activity at 1 uM relative to control.
For assay [8], the species on record is Homo sapiens. In words: Inhibition of human PKA assessed as residual activity at 0.1 uM relative to control.
For assay [9], the target named is Calcium/calmodulin-dependent protein kinase type 1D (Homo sapiens) (UniProt Q8IU85). In words: Inhibition of human CAMK1D assessed as residual activity at 1 uM relative to control.
Assay [10] concerns the target Dual specificity tyrosine-phosphorylation-regulated kinase 1A (Homo sapiens) (UniProt Q13627). As to the kind of experiment: Inhibition of human DYRK1A assessed as residual activity at 1 uM relative to control.
Assay [11] has as its target BDNF/NT-3 growth factors receptor (Mus musculus) (UniProt P15209). In words: Inhibition of TrkB in mouse MG87 cells transfected with pFA2-Elk plasmid and pFR-luciferase plasmid assessed as reduction in Akt phosphorylation at 0.01 to 1 uM after 5 mins in presence of BDNF by Western blot analysis. It is filed as cell-based. The following applies: dose 0.01-1 µM. For orientation: Immunoblotting shows a protein as a band on a membrane.

The target of assay [12] is Mitogen-activated protein kinase 8 (Homo sapiens) (UniProt P45983). As to the kind of experiment: Inhibition of human JNK1 assessed as residual activity at 1 uM relative to control.
For assay [13], the target named is High affinity nerve growth factor receptor (Rattus norvegicus) (UniProt P35739). In words: Inhibition of TrkA in rat PC-12 cells assessed as reduction in Akt phosphorylation at 0.01 to 1 uM after 5 mins in presence of NGF by Western blot analysis. It is filed as cell-based. As to conditions: dose 0.01-1 µM.
Assay [14] shares this target. In words: Inhibition of TrkA phosphorylation in rat PC12 cells at 1 uM after 5 mins in presence of NGF by Western blot analysis. The following applies: PC-12. It counts as cell-based.
Assay [15] is filed under the species Homo sapiens. As to the kind of experiment: Inhibition of human S6K assessed as residual activity at 0.1 uM relative to control.
Assay [16] concerns the target BDNF/NT-3 growth factors receptor (Mus musculus) (UniProt P15209). In words: Inhibition of TrkB in mouse MG87 cells transfected with pFA2-Elk plasmid and pFR-luciferase plasmid assessed as reduction in ERK1/ERK2 phosphorylation at 0.01 to 1 uM after 5 mins in presence of BDNF by Western blot analysis. It is filed as cell-based. As to conditions: dose 0.01-1 µM.
In assay [17] the target is Tyrosine-protein kinase SYK (Homo sapiens) (UniProt P43405). In words: Inhibition of human SYK (1 to 635 residues) assessed as residual activity at 0.1 uM relative to control.
Assay [18] shares this target. In words: Inhibition of human SYK (1 to 635 residues) assessed as residual activity at 1 uM relative to control.

Molecules are shown by their SMILES. Active and inactive are the calls of the source. The calls are words filed in the database; no cut-off is given here.

Insulin-like growth factor 1 receptor (Homo sapiens), sequence (P08069 31-736 limits assumed): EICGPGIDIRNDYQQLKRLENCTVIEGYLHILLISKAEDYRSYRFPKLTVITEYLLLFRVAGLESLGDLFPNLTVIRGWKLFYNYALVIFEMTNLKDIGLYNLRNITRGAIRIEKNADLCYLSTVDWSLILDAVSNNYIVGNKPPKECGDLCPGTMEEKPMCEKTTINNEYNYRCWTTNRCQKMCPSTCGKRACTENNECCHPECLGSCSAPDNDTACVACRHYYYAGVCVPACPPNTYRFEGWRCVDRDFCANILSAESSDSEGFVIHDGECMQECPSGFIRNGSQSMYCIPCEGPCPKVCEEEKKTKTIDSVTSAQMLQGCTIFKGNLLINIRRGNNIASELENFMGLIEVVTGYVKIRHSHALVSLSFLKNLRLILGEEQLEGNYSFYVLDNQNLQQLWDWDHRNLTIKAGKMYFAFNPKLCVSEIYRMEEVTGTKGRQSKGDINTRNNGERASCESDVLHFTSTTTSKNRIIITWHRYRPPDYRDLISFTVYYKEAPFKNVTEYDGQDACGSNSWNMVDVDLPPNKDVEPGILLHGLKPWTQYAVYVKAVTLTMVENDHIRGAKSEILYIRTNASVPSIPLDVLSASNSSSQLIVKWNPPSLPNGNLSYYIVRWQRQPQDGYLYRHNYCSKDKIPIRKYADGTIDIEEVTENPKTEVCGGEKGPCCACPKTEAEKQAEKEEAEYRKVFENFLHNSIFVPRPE
Insulin-like growth factor 1 receptor (Homo sapiens), sequence (P08069 741-1367 limits assumed): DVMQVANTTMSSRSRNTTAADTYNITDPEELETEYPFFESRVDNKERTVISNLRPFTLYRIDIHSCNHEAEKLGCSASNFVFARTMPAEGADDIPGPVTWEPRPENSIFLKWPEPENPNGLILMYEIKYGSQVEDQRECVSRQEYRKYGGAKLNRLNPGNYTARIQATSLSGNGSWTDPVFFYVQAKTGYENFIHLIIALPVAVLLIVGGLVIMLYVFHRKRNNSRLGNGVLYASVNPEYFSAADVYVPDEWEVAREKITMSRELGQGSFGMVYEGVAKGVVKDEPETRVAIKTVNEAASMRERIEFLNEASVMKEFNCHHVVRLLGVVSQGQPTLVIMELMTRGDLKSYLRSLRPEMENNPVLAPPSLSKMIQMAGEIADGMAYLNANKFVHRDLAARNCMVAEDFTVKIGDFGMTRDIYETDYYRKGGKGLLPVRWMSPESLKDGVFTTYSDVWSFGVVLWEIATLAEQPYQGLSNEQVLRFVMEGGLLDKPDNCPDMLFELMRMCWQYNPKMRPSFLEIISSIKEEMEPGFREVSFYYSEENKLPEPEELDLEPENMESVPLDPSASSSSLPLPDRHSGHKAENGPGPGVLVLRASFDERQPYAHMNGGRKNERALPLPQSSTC
Mitogen-activated protein kinase 8 (Homo sapiens), sequence (P45983 whole entry): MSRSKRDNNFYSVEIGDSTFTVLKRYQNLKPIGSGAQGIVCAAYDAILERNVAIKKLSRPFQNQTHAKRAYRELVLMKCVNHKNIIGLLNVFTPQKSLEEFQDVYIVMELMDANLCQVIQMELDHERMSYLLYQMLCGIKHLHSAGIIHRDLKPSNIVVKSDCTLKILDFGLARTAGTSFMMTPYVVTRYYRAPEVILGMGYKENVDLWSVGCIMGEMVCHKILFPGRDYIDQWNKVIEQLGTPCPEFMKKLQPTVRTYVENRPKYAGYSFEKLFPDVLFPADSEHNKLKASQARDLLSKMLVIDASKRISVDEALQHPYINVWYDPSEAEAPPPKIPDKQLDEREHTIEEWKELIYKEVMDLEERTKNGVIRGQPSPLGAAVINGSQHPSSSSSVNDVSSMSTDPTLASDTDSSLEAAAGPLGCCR
Dual specificity mitogen-activated protein kinase kinase 1 (Homo sapiens), sequence (Q02750 whole entry): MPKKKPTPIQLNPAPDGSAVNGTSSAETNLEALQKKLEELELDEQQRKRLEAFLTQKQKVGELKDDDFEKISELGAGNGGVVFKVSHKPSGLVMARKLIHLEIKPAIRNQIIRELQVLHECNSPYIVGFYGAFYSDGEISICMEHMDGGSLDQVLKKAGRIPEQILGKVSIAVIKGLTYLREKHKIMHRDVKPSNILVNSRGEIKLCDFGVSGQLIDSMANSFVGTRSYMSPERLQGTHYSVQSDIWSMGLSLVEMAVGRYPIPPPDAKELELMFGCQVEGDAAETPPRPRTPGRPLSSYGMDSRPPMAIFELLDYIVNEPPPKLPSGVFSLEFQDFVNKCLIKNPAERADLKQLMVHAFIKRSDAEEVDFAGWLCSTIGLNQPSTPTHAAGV
Receptor tyrosine-protein kinase erbB-4 (Homo sapiens), sequence (Q15303 whole entry): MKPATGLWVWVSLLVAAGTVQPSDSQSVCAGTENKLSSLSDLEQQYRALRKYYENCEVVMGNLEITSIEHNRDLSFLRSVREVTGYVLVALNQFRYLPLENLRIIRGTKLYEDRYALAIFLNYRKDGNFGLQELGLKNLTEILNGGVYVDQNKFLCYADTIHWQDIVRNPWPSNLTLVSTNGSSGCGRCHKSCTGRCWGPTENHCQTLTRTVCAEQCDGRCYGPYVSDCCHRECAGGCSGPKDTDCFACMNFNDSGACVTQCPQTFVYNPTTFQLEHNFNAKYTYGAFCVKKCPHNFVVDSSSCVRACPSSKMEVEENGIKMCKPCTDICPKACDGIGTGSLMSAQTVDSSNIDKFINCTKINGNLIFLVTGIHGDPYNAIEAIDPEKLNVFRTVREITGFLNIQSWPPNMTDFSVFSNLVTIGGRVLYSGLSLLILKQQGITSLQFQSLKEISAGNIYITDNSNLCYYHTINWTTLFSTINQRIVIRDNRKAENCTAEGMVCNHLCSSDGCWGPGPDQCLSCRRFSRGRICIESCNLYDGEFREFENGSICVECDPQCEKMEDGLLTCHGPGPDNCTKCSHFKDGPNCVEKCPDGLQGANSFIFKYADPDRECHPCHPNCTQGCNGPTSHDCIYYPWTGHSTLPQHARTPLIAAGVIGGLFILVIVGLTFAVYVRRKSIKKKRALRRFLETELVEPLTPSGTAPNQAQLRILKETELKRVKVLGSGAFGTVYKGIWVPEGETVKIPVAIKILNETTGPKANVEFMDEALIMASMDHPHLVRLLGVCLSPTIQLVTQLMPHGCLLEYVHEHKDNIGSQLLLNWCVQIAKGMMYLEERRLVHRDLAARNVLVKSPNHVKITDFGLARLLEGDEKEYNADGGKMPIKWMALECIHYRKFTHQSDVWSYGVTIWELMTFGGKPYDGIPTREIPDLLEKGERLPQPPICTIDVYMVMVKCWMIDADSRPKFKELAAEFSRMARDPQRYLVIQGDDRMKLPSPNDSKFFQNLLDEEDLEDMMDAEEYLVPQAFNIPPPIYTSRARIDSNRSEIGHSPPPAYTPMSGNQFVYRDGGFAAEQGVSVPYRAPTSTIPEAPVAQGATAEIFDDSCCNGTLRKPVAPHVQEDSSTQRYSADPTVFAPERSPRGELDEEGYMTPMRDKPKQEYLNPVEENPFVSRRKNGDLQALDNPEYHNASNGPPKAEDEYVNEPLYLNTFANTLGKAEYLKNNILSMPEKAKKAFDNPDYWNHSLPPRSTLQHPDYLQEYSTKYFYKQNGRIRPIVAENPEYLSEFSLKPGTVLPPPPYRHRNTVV
Serine/threonine-protein kinase Nek6 (Homo sapiens), sequence (Q9HC98 whole entry): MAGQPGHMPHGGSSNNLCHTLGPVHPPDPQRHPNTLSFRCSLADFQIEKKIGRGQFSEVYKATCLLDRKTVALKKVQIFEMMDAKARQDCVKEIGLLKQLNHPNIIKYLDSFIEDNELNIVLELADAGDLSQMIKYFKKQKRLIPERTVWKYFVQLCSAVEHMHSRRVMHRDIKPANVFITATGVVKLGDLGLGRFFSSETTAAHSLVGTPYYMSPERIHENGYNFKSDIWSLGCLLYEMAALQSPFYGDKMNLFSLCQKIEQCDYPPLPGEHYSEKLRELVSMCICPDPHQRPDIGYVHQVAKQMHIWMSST
High affinity nerve growth factor receptor (Rattus norvegicus), sequence (P35739 whole entry): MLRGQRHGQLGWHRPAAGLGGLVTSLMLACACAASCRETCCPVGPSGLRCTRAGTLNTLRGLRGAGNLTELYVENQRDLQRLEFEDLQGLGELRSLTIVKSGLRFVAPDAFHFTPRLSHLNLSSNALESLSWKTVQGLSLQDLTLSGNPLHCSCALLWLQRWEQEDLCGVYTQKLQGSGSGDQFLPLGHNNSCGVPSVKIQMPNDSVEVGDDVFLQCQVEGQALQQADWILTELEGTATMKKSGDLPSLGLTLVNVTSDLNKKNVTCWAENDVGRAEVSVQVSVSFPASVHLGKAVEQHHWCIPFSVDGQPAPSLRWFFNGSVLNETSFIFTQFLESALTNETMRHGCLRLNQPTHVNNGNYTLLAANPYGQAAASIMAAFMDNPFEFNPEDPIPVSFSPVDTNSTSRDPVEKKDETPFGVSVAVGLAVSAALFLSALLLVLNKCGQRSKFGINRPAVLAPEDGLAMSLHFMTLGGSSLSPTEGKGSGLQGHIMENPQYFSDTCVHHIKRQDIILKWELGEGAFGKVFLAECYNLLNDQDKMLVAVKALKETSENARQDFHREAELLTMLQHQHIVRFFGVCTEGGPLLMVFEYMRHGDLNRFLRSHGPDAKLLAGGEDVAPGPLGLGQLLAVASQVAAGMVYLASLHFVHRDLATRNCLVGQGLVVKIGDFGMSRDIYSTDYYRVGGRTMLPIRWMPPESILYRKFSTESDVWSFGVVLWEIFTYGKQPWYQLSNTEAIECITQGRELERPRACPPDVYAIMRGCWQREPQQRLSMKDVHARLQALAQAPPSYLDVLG
Calcium/calmodulin-dependent protein kinase type 1D (Homo sapiens), sequence (Q8IU85 whole entry, looked up): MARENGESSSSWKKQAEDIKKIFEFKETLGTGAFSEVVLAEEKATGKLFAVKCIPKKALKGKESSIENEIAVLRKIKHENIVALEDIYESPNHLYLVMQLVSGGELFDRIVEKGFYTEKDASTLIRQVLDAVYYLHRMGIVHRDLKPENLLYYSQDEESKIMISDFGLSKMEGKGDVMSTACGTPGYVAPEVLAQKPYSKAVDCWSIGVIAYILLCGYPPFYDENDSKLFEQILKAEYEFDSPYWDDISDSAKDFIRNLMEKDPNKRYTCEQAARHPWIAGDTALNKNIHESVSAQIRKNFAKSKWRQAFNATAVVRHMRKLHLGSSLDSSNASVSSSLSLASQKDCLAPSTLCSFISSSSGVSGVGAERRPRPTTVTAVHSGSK

In the case of `CNS(=O)(=O)c1ccc2c(c1)/C(=C/c1cn(C)c3ccc(OC)cc13)C(=O)N2`, the Activity in assay [1] stood at 93%; in assay [2], 99%; in assay [3], 93%; in assay [4], 98%; in assay [5] it was 104%; in assay [6], 96%. Moreover, the Activity was 83% in the assay listed under Homo sapiens [7]; 91% in the assay listed under Homo sapiens [8]; 80% in assay [9]; 95% in assay [10]; 112% in [12]; 96% in the assay filed under Homo sapiens [15]. Further, the inhibition result in assay [11], in assay [13], in [14] and in assay [16] was “Active” in each case.

As for `CN(C)S(=O)(=O)c1ccc2c(c1)/C(=C/c1cn(C)c3ccc(O)cc13)C(=O)N2`, the Activity was found to be 81% in [1]; 104% in [2]; 89% in [3]; 110% in assay [4]; 107% in [5]; 107% in assay [17]. The Activity in [6] amounted to 102%; in the assay listed under Homo sapiens [7], 92%; in the assay filed under Homo sapiens [8], 94%; in assay [9], 103%; in [18] it was 91%; in [10] it was 101%. The Activity is 97% in [12] and 87% in the assay filed under Homo sapiens [15].

For `COc1ccc2[nH]cc(/C=C3\C(=O)Nc4ccc(S(N)(=O)=O)cc43)c2c1`, the Activity stood at 62% in [1]; 117% in assay [2]; 72% in assay [3]; 94% in assay [4]; 87% in [5]; 86% in assay [17]. In addition, the Activity in assay [6] amounted to 98%; in the assay filed under Homo sapiens [7] it was 70%; in the assay filed under Homo sapiens [8], 88%; in [9] it was 94%; in [18], 35%; in assay [10], 96%. The Activity was 87% in [12] and 88% in the assay listed under Homo sapiens [15].

`COc1ccc2c(c1)c(/C=C1\C(=O)Nc3ccc(S(=O)(=O)N(C)C)cc31)cn2C`: the Activity came out at 79% in assay [1]; 100% in assay [2]; 92% in assay [3]; 103% in assay [4]; 104% in assay [5]; 102% in [17]. For the same compound, the Activity is 94% in assay [6]; 85% in the assay filed under Homo sapiens [7]; 91% in the assay filed under Homo sapiens [8]; 94% in assay [9]; 91% in assay [18]; 94% in assay [10]. For the same compound, the Activity came out at 100% in assay [12] and 87% in the assay filed under Homo sapiens [15]. Moreover, the inhibition result in assay [11], in assay [13], in assay [14] and in assay [16] was “Active” each time.

For the compound `COc1ccc2c(c1)c(/C=C1\C(=O)Nc3ccc(S(N)(=O)=O)cc31)cn2C`, the Activity in [1] came to 55%; in assay [2] it was 106%; in assay [3] it was 91%; in assay [4], 101%; in assay [5], 82%; in assay [6], 105%. The Activity in the assay listed under Homo sapiens [7] was 92%; in the assay listed under Homo sapiens [8] it was 91%; in assay [9], 97%; in assay [10], 99%; in assay [12] it was 95%; in the assay filed under Homo sapiens [15] it was 92%. In addition, the inhibition entry in assay [11], in [13], in assay [14] and in [16] was “Active” each time.

For `Cn1cc(/C=C2\C(=O)Nc3ccc(S(N)(=O)=O)cc32)c2ccccc21`, the Activity came out at 58% in [1]; 111% in [2]; 91% in assay [3]; 94% in assay [4]; 67% in [5]; 69% in assay [17]. For the same compound, the Activity turned out to be 105% in [6]; 81% in the assay listed under Homo sapiens [7]; 94% in the assay filed under Homo sapiens [8]; 90% in [9]; 47% in assay [18]; 114% in [10]. The Activity in [12] was 94%; in the assay filed under Homo sapiens [15], 90%.
